From patent US8188129B2, “(−)-enantiomer of the 2-[2-(1-chloro-cyclopropyl)-3-(2-chlorophenyl)-2-hydroxypropyl]-2,4-dihydro-[1,2,4]-triazole-3-thione” (Bayer Aktiengesellschaft, priority 1999, dated 2012)

What was measured:
Podosphaera leucotricha = assay: Podosphaera test (apple)/protective; assay type: in vivo; conditions: protective spray, application rate 10 g/ha, evaluation 10 days after inoculation
Uncinula necator = assay: Uncinula test (vine)/protective; assay type: in vivo; conditions: protective spray, application rate 10 g/ha, evaluation 14 days after inoculation
Pyricularia oryzae = assay type: in vivo; conditions: rice, protective spray, application rate 375 g/ha, evaluation 4 days after inoculation
Venturia inaequalis = assay: Venturia test (apple)/curative; conditions: curative spray, application rate 1 g/ha, evaluation 12 days after inoculation
Method: To test for curative activity, young plants are inoculated with an aqueous conidia suspension of the apple scab pathogen Venturia inaequalis. The plants remain in an incubation cabin at approximately 20° C. and 100% relative atmospheric humidity for 1 day and are then placed in a greenhouse.
The plants are then placed in a greenhouse at approximately 21° C. and a relative atmospheric humidity of approximately 90%.
Evaluation is carried out 12 days after the inoculation.

Cochliobolus sativus = Cochliobolus sativus test (barley)/protective; conditions: protective spray, evaluation 7 days after inoculation
Method: After the spray coating has dried on, the plants are sprayed with a conidia suspension of Cochiliobolus sativus. The plants remain in an incubation cabin at 20° C. and 100% relative atmospheric humidity for 48 hours.
The plants are placed in a greenhouse at a temperature of 20° C. and a relative atmospheric humidity of approximately 80%.
Evaluation is carried out 7 days after the inoculation.

With `OC(Cc1ccccc1Cl)(Cn1nc[nH]c1=S)C1(Cl)CC1` (racemic) [(Ia), racemic 2-[2-(1-chloro-cyclopropyl)-3-(2-chloro-phenyl)-2-hydroxypropyl]-2,4-dihydro-[1,2,4]-triazole-3-thione] the Efficacy in % (Podosphaera leucotricha) was 60%, the Efficacy in % (Uncinula necator) was 47% and the Efficacy in % (Pyricularia oryzae) was 30%. The Efficacy in % (Venturia inaequalis) was 79%, the Efficacy in % (Cochliobolus sativus; application rate 125 g/ha) was 59% and the Efficacy in % (Cochliobolus sativus; application rate 250 g/ha) was 66%.
Work on `OC(Cc1ccccc1Cl)(Cn1nc[nH]c1=S)C1(Cl)CC1` (single isomer, unassigned; (-)) [(I), (−)-enantiomer of 2-[2-(1-chloro-cyclopropyl)-3-(2-chlorophenyl)-2-hydroxypropyl]-2,4-dihydro-[1,2,4]-triazole-3-thione] yielded an Efficacy in % (Podosphaera leucotricha) of 78%, an Efficacy in % (Uncinula necator) of 84% and an Efficacy in % (Pyricularia oryzae) of 90%. The Efficacy in % (Venturia inaequalis) was 91%, the Efficacy in % (Cochliobolus sativus; application rate 125 g/ha) was 75% and the Efficacy in % (Cochliobolus sativus; application rate 250 g/ha) was 75%.
